Laboratory results: PMC5458052 (Nature Communications, 2017)

Experiments:
[1] = system: P. falciparum strains (sensitive and resistant); test: microbe, parasite or virus in culture; assay type: cell-based; conditions: Plasmodium falciparum, mean ± SD n=3
[2] = system: P. vivax clinical field isolates; test: microbe, parasite or virus in culture; assay type: cell-based; conditions: Plasmodium vivax, read-out: Median IC50
[3] = system: P. falciparum lab lines FC27 and K1; test: microbe, parasite or virus in culture; assay type: cell-based; conditions: Plasmodium falciparum, median of 3 independent experiments
[4] = system: P. falciparum strain 3D7^0087/N9; set-up: method as in PMID 19596869; conditions: four consecutive daily doses; cited from earlier work

`C[C@H]1[C@H](OC(=O)CCC(=O)O)O[C@@H]2O[C@@]3(C)CC[C@H]4[C@H](C)CC[C@@H]1[C@@]24OO3` [Artesunate, artesunate] gave an IC50 ([1]; DD2, strain Dd2 (chloroquine resistant)) of 5.4 ± 1.1 nM, an IC50 ([1]; HB3, strain HB3 (chloroquine sensitive)) of 2.8 ± 0.6 nM and an IC50 ([1]; NF54, strain NF54 (chloroquine sensitive)) of 4.7 ± 1 nM. It also gave an IC50 ([1]; strain 7G8 (chloroquine resistant)) of 1.8 ± 0.4 nM, an IC50 ([1]; strain D6 (chloroquine sensitive)) of 5.8 ± 1.2 nM and an IC50 ([1]; strain FCB (chloroquine resistant)) of 5.8 ± 1.2 nM. The IC50 ([1]; strain K1 (chloroquine resistant)) was 2.8 ± 0.6 nM, the IC50 ([1]; strain V1/S (chloroquine resistant)) was 2.7 ± 0.6 nM and the IC50 [2] was 0.8 nM. For the same molecule, the IC50 ([3]; K1, FC27 (CQ S) lab line) was 3.6 nM, the IC50 ([3]; K1, K1 (CQ R) lab line) was 5.1 nM and the ED90 [4] was 10 mg/kg.
